Test results from patent US20070185094A1, “Novel 3-substitued-1,4-benzodiazepines” (ASTON UNIVERSITY, priority 2003, published 2007).
Where two headings read alike, the source gives them in different places.

Columns and labels:
[1] = target: T1, pancreatic and gallbladder CCK receptors (Homo sapiens, UniProt P32238); conditions: cited from earlier work
T1 sequence (P32238 1-428): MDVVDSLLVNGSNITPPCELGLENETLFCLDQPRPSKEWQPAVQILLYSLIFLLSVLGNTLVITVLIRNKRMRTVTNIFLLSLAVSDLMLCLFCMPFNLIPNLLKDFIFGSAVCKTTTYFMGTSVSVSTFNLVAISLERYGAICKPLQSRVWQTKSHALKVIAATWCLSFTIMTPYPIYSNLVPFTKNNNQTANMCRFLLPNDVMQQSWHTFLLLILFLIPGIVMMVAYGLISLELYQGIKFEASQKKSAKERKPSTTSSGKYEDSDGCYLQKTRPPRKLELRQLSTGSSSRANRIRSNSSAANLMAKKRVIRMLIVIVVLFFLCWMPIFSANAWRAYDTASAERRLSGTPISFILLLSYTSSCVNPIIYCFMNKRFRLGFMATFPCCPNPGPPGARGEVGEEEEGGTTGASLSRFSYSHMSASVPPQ

[2] = tested on: MIA-PaCa2 cells; conditions: cited from earlier work; for IC50: MIA-PaCa2, read-out: IC50 cytotoxicity
[3] = tested on: HT29-S-B6 cells; conditions: 10 μM, at least 3 days, exponential phase; cited from earlier work
[4] = tested on: advanced pancreatic cancer; conditions: 18 patients; cited from earlier work
[5] = target: T2, CCKB receptor (Cavia porcellus, UniProt H0VZC5); assay: 125I-CCK-8 receptor binding assay, CCKB (guinea pig cerebral cortex); conditions: IC50 CCKB
T2 sequence (H0VZC5 1-426): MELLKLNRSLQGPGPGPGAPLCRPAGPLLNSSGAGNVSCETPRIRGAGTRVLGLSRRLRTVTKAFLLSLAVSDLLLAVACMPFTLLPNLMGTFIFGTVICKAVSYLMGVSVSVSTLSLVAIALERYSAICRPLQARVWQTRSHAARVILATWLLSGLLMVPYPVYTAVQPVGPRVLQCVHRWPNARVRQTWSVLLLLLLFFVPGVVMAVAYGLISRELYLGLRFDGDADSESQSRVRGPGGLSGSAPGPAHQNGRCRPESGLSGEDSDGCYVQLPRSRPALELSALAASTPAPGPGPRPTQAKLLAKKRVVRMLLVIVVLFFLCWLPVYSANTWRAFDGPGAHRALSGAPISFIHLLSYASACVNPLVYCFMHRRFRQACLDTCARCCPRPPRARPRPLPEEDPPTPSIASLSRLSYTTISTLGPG
Protocol: CCKA and CCKB receptor binding assays were performed, by using guinea pig cerebral cortex (CCKB) or rat pancreas (CCKA). […]. J. Pharmacol., 269, 249-254]. Pancreatic membranes were prepared in a similar way but by Charpentier et al [(1988), Cyclic cholecystokinin analogues with high selectivity for central receptors., Proc Natl Acad Sci USA, 85, 1968-1972]. The […] CCK binding assay: Tissues were homogenised in ice cold sucrose (0.32 M, 25 ml) for 15 strokes at 500 rpm and centrifuged at 13000 rpm for 10 mins. The supernatant was re-centrifuged at 13000 rpm for 20 mins. The resulting pellet was re-dispersed to the required volume of buffer at 500 rpm and stored in aliquots at […].
(§1) The samples were incubated {with membranes (0.1 mg/ml)} in 20 mM Hepes, 1 mM EGTA, 5 mM MgCl2, 150 mm NaCl, 0.25 mg/ml bacitracin at pH 6.5 for 2 hrs at RT and then […] by centrifugation at 1100 rpm for 5 minutes. The membrane pellets were washed twice with water and the bound radioactivity was measured in a Packard Cobra Auto-gamma counter (B5005). All binding assays were carried out with L-363, 260 as an internal non-specific standard. Controls (no compound) were also added. All samples were made in duplicate and repeated twice. All compounds were initially screened for percentage inhibition at 20 μM.

[6] = target: T3, CCKA receptor (Rattus norvegicus, UniProt P30551); assay: 125I-CCK-8 receptor binding assay, CCKA (rat pancreas); conditions: for Ratio CCKB:CCKA: ratio of IC50 values; for CCKA binding activity in words: dimethylanilines with at least one meta group
T3 construct: Pancreatic membranes were prepared in a similar way; from tissue; host or cells: rat pancreas membranes
T3 sequence (P30551 1-444): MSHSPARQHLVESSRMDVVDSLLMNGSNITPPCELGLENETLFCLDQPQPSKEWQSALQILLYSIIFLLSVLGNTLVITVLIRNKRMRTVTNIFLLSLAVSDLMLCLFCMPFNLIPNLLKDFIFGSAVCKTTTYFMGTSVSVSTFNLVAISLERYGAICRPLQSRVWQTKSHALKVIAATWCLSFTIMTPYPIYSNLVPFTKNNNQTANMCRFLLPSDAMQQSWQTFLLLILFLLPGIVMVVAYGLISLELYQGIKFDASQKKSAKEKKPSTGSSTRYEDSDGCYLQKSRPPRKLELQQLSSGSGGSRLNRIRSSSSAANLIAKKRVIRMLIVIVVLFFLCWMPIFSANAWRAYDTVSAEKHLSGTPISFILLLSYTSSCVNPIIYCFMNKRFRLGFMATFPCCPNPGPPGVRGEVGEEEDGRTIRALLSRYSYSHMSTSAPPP
Protocol: CCKA and CCKB receptor binding assays were performed, by using guinea pig cerebral cortex (CCKB) or rat pancreas (CCKA). Male guinea pig brain tissues were prepared according to the modified method described by Saita et al [(1994), Characterization of YM022: its CCKB/gastrin receptor binding profile and antagonism to CCK-8-induced Ca2+ mobilization., Eur. J. Pharmacol., 269, 249-254]. Pancreatic membranes were prepared in a similar way but by Charpentier et al [(1988), Cyclic cholecystokinin analogues with high selectivity for central receptors., Proc Natl Acad Sci USA, 85, 1968-1972]. The […] CCK binding assay: Tissues were homogenised in ice cold sucrose (0.32 M, 25 ml) for 15 strokes at 500 rpm and centrifuged at 13000 rpm for 10 mins. The supernatant was re-centrifuged at 13000 rpm for 20 mins. The resulting pellet was re-dispersed to the required volume of buffer at 500 rpm and stored in aliquots at […].
as §1

[7] = target: CCKB receptor; conditions: cited from earlier work
[8] = mice, after intravenous injections; cited from earlier work
[9] = satiated rats; cited from earlier work
[10] = as the HCl salt; cited from earlier work
[11] = tested on: CCKB/gastrin receptor; conditions: cited from earlier work

Row | SMILES | IC50 ([5]; Table 3) [nM] | IC50 ([6]; Table 3) [nM] | Ratio CCKB:CCKA ([6]; Table 3) | also measured
1 | CC(C)C[C@@H]1N[C@H]2N(C1=O)c1ccccc1[C@@]2(O)C[C@@H]1NC(=O)c2ccccc2-n2c1nc1ccccc1c2=O [Asperlicin] |  |  |  | affinity relative to proglumide [1]: 300-400 times
2 | N.N.[Cl][Pt][Cl] [DDP, cisplatin] |  |  |  | IC50 ([2]; 1-h exposure): 35300 ± 3200 nM
3 | CN1C(=O)[C@@H](NC(=O)c2cc3ccccc3[nH]2)N=C(c2ccccc2)c2ccccc21 [Devazepide] |  |  |  | factor of enhancement of sensitivity of MIA-PaCa2 cells to DDP [2]: 3.5; IC50 ([2]; constant exposure schedule): 9500 ± 1400 nM; enhancement of baseline production of carcinoembryonic antigens [3]: 5 fold; enhancement of baseline production of gastric M1 mucins [3]: 2-3 fold; impact on tumor progression, pain, or nutrition [4]: failed to demonstrate any impact; patients able to tolerate treatment [4]: 17 of 18
4 | COc1ccc(NC2N=C(c3ccccc3)c3cc(Cl)ccc3NC2=O)cc1 (centres unmarked) [Example 43, 7-chloro-3-(4-methoxyanilino)-5-phenyl-1,3-dihydro-2H-1,4-benzodiazepin-2-one] | > 10000 | ≥ 20000 |  | 
5 | Cc1ccc(NC2N=C(c3ccccc3)c3cc(Cl)ccc3NC2=O)cc1 (centres unmarked) [Example 46] | 4600 | 290 | 16 | 
6 | Cc1cccc(C)c1NC1N=C(c2ccccc2)c2cc(Cl)ccc2NC1=O (centres unmarked) [Example 47] | > 10000 | 10000 |  | 
7 | Cc1ccc(NC2N=C(c3ccccc3)c3cc(Cl)ccc3NC2=O)cc1C (centres unmarked) [Example 48] | 920 | 15 | 61 | CCKA binding activity in words [6]: equally active
8 | Cc1cccc(NC2N=C(c3ccccc3)c3cc(Cl)ccc3NC2=O)c1C (centres unmarked) [Example 49] | 6000 | 18 | 333 | CCKA binding activity in words [6]: equally active
9 | Cc1cc(C)cc(NC2N=C(c3ccccc3)c3cc(Cl)ccc3NC2=O)c1 (centres unmarked) [Example 50] | 2900 | 9 | 322 | CCKA binding activity in words [6]: equally active
10 | O=C1Nc2ccc(Cl)cc2C(c2ccccc2)=NC1Nc1ccccc1 (centres unmarked) [Example 53] | 4100 | 240 | 17 | 
11 | CN(c1ccccc1)C1N=C(c2ccccc2)c2cc(Cl)ccc2NC1=O (centres unmarked) [Example 54] | 150 |  | 11 | IC50 [6]: 14 nM
12 | Cc1cccc(N(C)C2N=C(c3ccccc3)c3cc(Cl)ccc3NC2=O)c1 (centres unmarked) [Example 55, 7-chloro-3-(3-dimethylanilino)-5-phenyl-1,3-dihydro-2H-1,4-benzodiazepin-2-one] |  |  | 9 | IC50 [5]: 70 nM; IC50 [6]: 8 nM
13 | CCN(c1cccc(C)c1)C1N=C(c2ccccc2)c2cc(Cl)ccc2NC1=O (centres unmarked) [Example 56] | 650 | 330 | 2 | 
14 | Cc1cccc(NC(=O)N[C@@H]2N=C(c3ccccc3)c3ccccc3N(C)C2=O)c1 [L-365,260] |  |  |  | IC50 [7]: 8.5 nM; affinity for gastrin/CCKB receptors relative to pancreatic CCKA [7]: 80 fold; selectivity for CCKB receptors over CCKA [7]: 87 fold; brain uptake [8]: < 0.8 % dose/gram; potency relative to Devazepide in increasing feeding frequency [9]: 100 times
15 | Cc1cccc(NC(=O)NC2N=C(C3CCCCC3)c3ccccc3N(C)C2=O)c1 [L-708,474] |  |  |  | IC50 [7]: 0.28 nM; selectivity for CCKB receptors over CCKA [7]: 6,500 fold
16 | Cc1ccc(NC(=O)NC2N=C(C3CCCCC3)c3ccccc3N(C)C2=O)cc1Nc1nnn[nH]1 [L-737,425] |  |  |  | CCKA/CCKB ratio [7]: 37000
17 | Cc1cccc(NC(=O)NC2N=C(N3CC4CCC(C4)C3)c3ccccc3N(C)C2=O)c1 [L-740,093] |  |  |  | water solubility compared to L-365,260 [10]: one hundred fold improved
18 | Cc1cccc(NC(=O)NC2N=C(c3ccccc3)c3ccccc3N(CC(=O)c3ccccc3C)C2=O)c1 (centres unmarked) [YM022] |  |  |  | CCKA/CCKB ratio [11]: about 1300; IC50 ([11]; read-out: IC50 CCKB/gastrin receptor affinity): 0.11 nM
